According to patent US20240116985A1, “STAPLED PEPTIDES AND METHODS THEREOF” (priority 2020, published 2024):
In brackets after ≈: the same amount, converted by molar mass. Where two headings read alike, the source gives them in different places.

Columns and labels:
Axin2 and Myc = assay: Gene expression in cells (FIG. 1); type: cell-based
Source text: FIG. 1. Provided agents can modulate gene expression in cells.

PLOD2 and LCOR = assay: Expression of beta-catenin-independent genes (FIG. 2); type: cell-based
DLD1 = assay: Reporter assay (e.g., DLD1 reporter assay) (FIG. 3); type: cell-based; details: compared to a control peptide I-796
Source text: FIG. 3. Provided technologies can effectively modulate expression.
Various technologies can be utilized for characterizing and/or assessing provided technologies (e.g., agents (e.g., various peptides), compositions, methods, etc.) in accordance with the present disclosure. As described herein, in some embodiments, a useful technology is or comprises fluorescence polarization. In some embodiments, a useful technology assesses Log P or Log D. In some embodiments, a useful technology is or comprises a CHI Log D assay. In some embodiments, a useful technology assesses solubility. In some embodiments, a useful technology is or comprises NanoBRET. In some embodiments, a useful technology is or comprises a reporter assay (e.g., DLD1 reporter assay). In some embodiments, a useful technology is or comprises alphascreen. Certain useful protocols are described in the Examples. Those skilled in the art appreciate that suitable adjustments may be made to such protocols, e.g., according to specific conditions, agents, purposes, etc.

[1] = target: T1, full-length beta-Catenin (Uniprot ID P35222) (Homo sapiens, UniProt P35222); assay: Fluorescence polarization IC50 (beta-catenin / 5FAM-TCF4 10-53 competition); type: binding
T1 construct: 10 nM full-length beta-Catenin (Uniprot ID P35222)
T1 sequence (P35222 1-781): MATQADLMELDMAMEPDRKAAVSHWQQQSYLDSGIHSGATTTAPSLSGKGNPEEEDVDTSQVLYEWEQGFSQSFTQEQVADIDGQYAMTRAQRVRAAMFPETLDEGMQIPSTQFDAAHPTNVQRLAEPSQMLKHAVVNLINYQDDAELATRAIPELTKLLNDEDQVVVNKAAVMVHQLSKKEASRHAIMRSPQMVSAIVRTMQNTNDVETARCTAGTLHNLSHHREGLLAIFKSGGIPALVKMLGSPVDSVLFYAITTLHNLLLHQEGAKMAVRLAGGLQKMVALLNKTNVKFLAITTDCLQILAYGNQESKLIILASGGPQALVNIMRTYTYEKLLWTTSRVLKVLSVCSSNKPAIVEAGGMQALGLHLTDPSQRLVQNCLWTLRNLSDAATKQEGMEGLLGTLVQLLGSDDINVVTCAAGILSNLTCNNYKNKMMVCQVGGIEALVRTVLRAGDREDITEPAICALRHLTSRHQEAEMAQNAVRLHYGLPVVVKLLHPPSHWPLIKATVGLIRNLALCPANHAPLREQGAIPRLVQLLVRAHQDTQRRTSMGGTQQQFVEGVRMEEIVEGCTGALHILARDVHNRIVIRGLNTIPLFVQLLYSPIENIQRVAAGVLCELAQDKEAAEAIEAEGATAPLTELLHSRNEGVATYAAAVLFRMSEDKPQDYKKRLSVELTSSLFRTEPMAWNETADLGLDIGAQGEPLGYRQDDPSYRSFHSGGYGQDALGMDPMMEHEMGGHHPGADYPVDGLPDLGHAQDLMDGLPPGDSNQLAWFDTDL

CHI Log D procedure = type: physicochemical; details: for CHI Log D: pH 7.4
[2] = target: T2, beta-catenin/TCF4 engagement (Homo sapiens, UniProt P35222); assay: Nano-BRET target engagement assay (B-cat-Halo & TCF4-Luc in HEK293 cells); type: cell-based
T2 construct: expressed in transfected cells; host or cells: HEK293
T2 sequence (P35222 1-781): T1 sequence (P35222 1-781)

[3] = tested on: TCF/LEF luciferase Reporter in DLD1 cells; assay: TCF reporter assay (DLD1 TCF/LEF luciferase reporter, Bright-Glo); type: cell-based
How it was run: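 Readouts: Bright-Glo luciferase for reporter signal and CellTiter-Glo for cell viability, with absolute IC50 derived. The reporter clone came from lentiviral TCF/LEF-luciferase transduction of DLD1 cells, seeded 5000 cells/well in RPMI with 4% FBS and exposed overnight to serially diluted compounds.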

Solubility in PBS = type: physicochemical
How it was run: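 Read-out is the HPLC peak area of the supernatant from ultracentrifuged PBS solution, scaled against a 50 μM peptide DMSO injection; value reported as [(PBS area)/(DMSO area)]*50 uM.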

COLO320DM cells = type: cell-based; details: read-out: COLO320DM Proliferation Abs IC50
How it was run: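 COLO320DM cells at 250 cells/well in RPMI-1640 + 4% HI FBS, dosed after 18–22 h with a 7-point […] 1/2 dilution series from 20 uM down to 313 nM.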

[4] = fluorescence polarization, beta-catenin, read-out: FP EC50
[5] = Peptide + ST-Protein (SAINT-Protein lipid), read-out: Nano-BRET Abs IC50
[6] = Peptide only, read-out: Nano-BRET Abs IC50
[7] = absolute IC50, read-out: NanoBRET Abs IC50
[8] = Peptide + ST-Protein (SAINT-Protein lipid), read-out: TCF Reporter Assay Abs IC50
[9] = Peptide only, read-out: TCF Reporter Assay Abs IC50
[10] = read-out: DLD1 4% Abs IC50, DLD1 4%

Row | SMILES | expression of various nucleic acids such as Axin2 and Myc (Axin2 and Myc) | expression of beta-catenin-independent genes including beta-catenin-independent WNT target genes such as PLOD2 and LCOR (PLOD2 and LCOR) | expression in a report assay (DLD1) | IC50 [1, 4] | IC50 ([1]; read-out: beta-Catenin FP IC50) | CHI Log D (CHI Log D procedure) | IC50 [2, 5] | IC50 [2, 6] | IC50 [2, 7] | IC50 ([2]; read-out: NanoBRET Abs IC50) | IC50 ([2]; read-out: NanoBRET IC50) | IC50 [3, 8] | IC50 [3, 9] | IC50 [3, 10] | Solubility (Solubility in PBS) | chromatographic logD (CHI Log D procedure; pH 7.4, CHI Log D) | Solubility (Solubility in PBS; Solubility (uM)) | IC50 ([3]; absolute IC50, read-out: DLD1 reporter assay Abs IC50) | IC50 (COLO320DM cells)
1 | CC(=O)N1CCC[C@]12CC=CCCCC1(CCCC=CCCCOC(=O)N3CC[C@@](C(=O)N[C@@H](Cc4ccsc4)C(=O)N[C@@H](Cc4csc5ccccc45)C(=O)N[C@@H](CCC(N)=O)C(N)=O)(C3)NC(=O)[C@H](CC(C)C)NC(=O)[C@H](Cc3ccccc3)NC(=O)[C@H](C)NC(=O)[C@H](C)NC(=O)[C@H](CN(CC(=O)O)CC(F)(F)F)NC(=O)[C@H](CC(=O)O)NC1=O)NC(=O)[C@H](CC(C)(C)C)NC(=O)[C@H](CC(=O)O)NC2=O (stereo partly drawn) [I-849, Ac-PL3-Asp-Npg-B5-Asp-TfeGA-Ala-Ala-Phe-Leu-PyrS2-3Thi-BztA-Gln-NH2] | can effectively reduce expression | do not significantly impact expression | can effectively reduce expression | 7 nM | 8 nM | 2.393 | 700 nM | 5000 nM | 2600 nM | 3600 nM | 2300 nM | 200 nM | 5000 nM | 1100 nM |  |  |  |  | 
2 | CC(=O)N1CCC[C@]12CC=CCCCC1(CCCC=CCCCOC(=O)N3CC[C@@](C(=O)N[C@@H](Cc4ccccc4Cl)C(=O)N[C@@H](Cc4csc5ccccc45)C(=O)N[C@@H](CCC(N)=O)C(N)=O)(C3)NC(=O)[C@H]([C@@H](C)O)NC(=O)[C@H](Cc3ccccc3)NC(=O)[C@H](C)NC(=O)[C@H](C)NC(=O)[C@H](CN(CC(=O)O)CC(F)(F)F)NC(=O)[C@H](CC(=O)O)NC1=O)NC(=O)[C@H](CC(C)(C)C)NC(=O)[C@H](CC(=O)O)NC2=O (stereo partly drawn) [I-922, Ac-PL3-Asp-Npg-B5-Asp-TfeGA-Ala-Ala-Phe-Thr-PyrS2-2C1F-BztA-Gln-NH2] | can effectively reduce expression | do not significantly impact expression | can effectively reduce expression | 12 nM | 12 nM | 2.344 | 1000 nM | 6000 nM | 2700 nM | 2700 nM | 2300 nM | 200 nM | 5000 nM |  | 32 µM (≈ 65.4 µg/mL) |  |  |  | 
3 | CC(=O)N1CCC[C@]12CC=CCCCC1(CCCC=CCCCOC(=O)N3CC[C@@](C(=O)N[C@@H](Cc4ccccc4Cl)C(=O)N[C@@H](Cc4csc5ccccc45)C(=O)N[C@@H](CCO)C(N)=O)(C3)NC(=O)[C@H](CCO)NC(=O)[C@H](Cc3ccccc3)NC(=O)[C@H](C)NC(=O)[C@H](C)NC(=O)[C@H](CN(CC(=O)O)CC(F)(F)F)NC(=O)[C@H](CC(=O)O)NC1=O)NC(=O)[C@H](CC(C)(C)C)NC(=O)[C@H](CC(=O)O)NC2=O (stereo partly drawn) [I-993, Ac-PL3-Asp-Npg-B5-Asp-TfeGA-Ala-Ala-Phe-Hse-PyrS2-2C1F-BztA-Hse-NH2] |  |  |  | 12 nM | 18 nM |  | 900 nM | 7000 nM | 4000 nM | 4900 nM |  | 200 nM | 5000 nM | 1800 nM |  | 2.33 | 41 µM (≈ 82.7 µg/mL) | 4400 nM | 3600 nM
